Experimental data as given in ChEMBL document CHEMBL3507680, “University of Dundee, Gates Library screen for HepG2 cell viability”.

Assay: Human HepG2 cell viability assay in 384 well format
Type: toxicity, cell-based
Design: dose 125 nL, time 70.5 hour; concentration not given beside the values
Conditions: HepG2 cells, read-out: Inhibition

Compound | cytotoxicity at 70.5 h [%]
Cc1ccsc1C(=O)NCC1COCc2c(C)nnn2C1 (stereo unspecified) | -1.54
Cc1nnn2c1COCC(CNC(=O)c1cnoc1C)C2 (stereo unspecified) | 0.126
CCN1C(=O)C2(CCOCC2)c2cc(NC(=O)c3csnn3)ccc21 | 8.75
Cc1cnc(C(=O)N2CCc3ncnc(C)c3CC2)cn1 | -3.63
O=C(Cc1ccsc1)N1CCn2cc(CN3CCCC3)nc2C1 | -5.43
O=C(CC1CC1)NCc1cc(=O)n2c(n1)CN(Cc1ccoc1)CCC2 | -5.33
Cc1nocc1C(=O)N1CCc2c(CN(C)C(C)C)n[nH]c2C1 | -8.09
Cc1ccc(CC(=O)N2Cc3nccn3CC(Cn3cccn3)C2)cc1 (stereo unspecified) | -0.504
Cc1noc([C@@H]2C[C@H]3OCC[C@H]3N(S(C)(=O)=O)C2)n1 | -8.57
COCCNC(=O)C[C@@H]1COC[C@H]2CN(C(=O)c3cnccn3)C[C@@H]12 | -6.71
COCCN1CCC2(CCCN(C(=O)c3cnoc3C)C2)C1=O (stereo unspecified) | -0.05
CN1C(=O)C[C@@H]2[C@@H]1CCN2C(=O)c1ccc[nH]1 | -2.89
Cn1cc(CN2C[C@@H]3COC[C@]3(COc3ccc(C#N)cn3)C2)cn1 | -10.6
Cc1ncsc1CN1C[C@@H]2COC[C@]2(COc2ccc(C#N)cn2)C1 | -4.4
COCCC(=O)N1CCC2(CN(Cc3ccc(OC)c(F)c3)C2)C1 | -9.17
COC[C@@]12CCO[C@@H]1CCN(C(=O)Cc1ccccc1F)C2 | -10.5
COc1nn(C)c2c1CCCN(C(=O)c1ccccc1)C2 | -5.54
C[C@H]1C[C@H]2CN(C(=O)c3ccncn3)CC[C@H]2O1 | -0.543
O=C(Cc1cccs1)N1C[C@@H]2COC[C@]2(COc2cccnc2)C1 | -1.72
CC(C)CC(=O)N1CCN(C(=O)N(C)C)CC2(CC(=O)N(C)C2)C1 (stereo unspecified) | 0.114
Cn1cc(-c2cnc(N3CCOCC3)nc2)cc1C(=O)O | -2.63
CN1C[C@H]2CCN(C(=O)NC3CCCC3)CC[C@H]2S1(=O)=O | -17.8
Cc1ncc(CN2CCc3nc4cc(C(C)(C)C)nn4c(O)c3C2)n1C | 7.3
Fc1ccc2[nH]c3c(c2c1)CCN1C(c2ccccn2)N2CCC31CC2 (stereo unspecified) | 19
CC1CCc2nn(CCNC(=O)c3cccs3)c(=O)cc2C1 (stereo unspecified) | 25.2
CS(=O)(=O)N1CCC(Cc2cnc(Br)cn2)CC1 | -5.81

Compound | cytotoxicity at 70.5 h [%]
O=C(NCCO)c1sc2ncccc2c1C1CNCCO1 (stereo unspecified) | -4.56
O=C(CC1CC1)N[C@@H]1CN(Cc2ccc(F)cc2)C[C@@H]2CCCO[C@@H]21 | -3.12
CN1CCN(C(=O)Cc2ccsc2)Cc2cccnc21 | -1.77
Cn1cc(N2C[C@@H]3CN(Cc4ccoc4)C[C@@H]3C2=O)cn1 | -2.46
COCC1CN(Cc2ccc(C)o2)Cc2nnn(C)c21 (stereo unspecified) | -0.755
Cc1occc1C(=O)N1CCC2(CCCN(Cc3nccs3)C2)C1 (stereo unspecified) | 1.62
Cn1cccc1CN1CCC2(CC1)CN(c1ncccn1)CCO2 | 1.85
CN(C)C(=O)CO[C@H]1CN(Cc2ccccc2)[C@@H]2CCCO[C@H]12 | 34.3
COc1ccc(CN2C[C@H](OCC3CCOCC3)[C@H]3COC[C@H]32)cc1 | -9.69
CCc1ccc(CN2C[C@@H]3OCCN(c4ccnc(N(C)C)n4)[C@@H]3C2)o1 | 5.59
CS(=O)(=O)N1CCOCC2(CN(Cc3ccsc3)CCO2)C1 (stereo unspecified) | 0.00349
O=C(NCc1cc(=O)n2c(n1)CN(CC1CCOC1)CCC2)C1CC1 (stereo unspecified) | -4.46
Cn1nnc2c1C(COCc1ccccn1)CN(C(=O)c1cccs1)C2 (stereo unspecified) | 5.64
Cc1cccc(CN2CCc3ncnc(C)c3CC2)n1 | -2.78
COCc1nn(C(C)C)c2c1CCN(Cc1cccs1)C2 | -6.03
c1cncc(-c2ccc3c(c2)C2(CC3)CCN(c3nncs3)CC2)c1 | -13.1
c1nc2c(c(C3CC3)n1)CCN(Cc1ccc3c(c1)OCO3)CC2 | -4.69
CN(Cc1ccco1)[C@@H]1CN(C(=O)c2ccnnc2)C[C@@H]2CCCO[C@@H]21 | -7.61
O=C(C1=CCCC1)N1CCC[C@]2(C[C@@H](Oc3ncccc3F)CO2)C1 | -6.43
CN(Cc1ccco1)[C@@H]1CN(C(=O)c2ccnnc2)[C@@H]2CCCO[C@H]12 | 1.48
CCO[C@@H]1CO[C@@]2(CCCN(Cc3scnc3C)C2)C1 | -11.1
CCO[C@H]1CO[C@@]2(CCCN(Cc3nc(C)cs3)C2)C1 | -10.1
CCCS(=O)(=O)N1CCC2(CN(c3cnn(C)c3)C(=O)CN2C)C1 (stereo unspecified) | 0.667
C1CC(CN2CCO[C@H]3[C@H](OCC4CC4)CC[C@@H]32)CCO1 | -2.31
O=C1[C@H]2CN(c3ncccn3)C[C@H]2CN1Cc1ccncc1 | 3.36
Cn1cc(C(=O)NCc2cn3c(n2)CN(CC2CCOCC2)CC3)cn1 | -1.1

Compound | cytotoxicity at 70.5 h [%]
CN(C)C(=O)CC1CC2(CCN(c3ncccn3)CC2)c2ccccc21 (stereo unspecified) | -0.293
COCC1COCCC12CCN(CCc1ccccc1)CC2 (stereo unspecified) | -0.938
CCn1cc2c(n1)CN(Cc1ccoc1)CC2COCC1CC1 (stereo unspecified) | 6.36
CN1CC(=O)N(c2ccsc2)CC12CCN(S(C)(=O)=O)C2 (stereo unspecified) | 1.05
O=C(Nc1cnccn1)[C@@H]1COC[C@H]2CN(C3CCCC3)C[C@H]21 | -3.18
COCCN1CC[C@@H](O)[C@@H]1Cc1ccccc1 | -16.9
CCCS(=O)(=O)N1CCOCC2(CCN(c3ccccn3)C2)C1 (stereo unspecified) | -11.6
COC[C@H]1CCC[C@]12CN(CCc1ccccc1)CCO2 | -15.8
Cn1cc(CN2CCc3c(COCC4CC4)cncc3C2)cn1 | -1.91
Fc1ccc(CN2CCC3(CC2)CN(c2ccccn2)CCO3)cc1 | 2.69
COCCNC(=O)[C@H]1CN(Cc2nccs2)C[C@H]2OCC[C@@H]12 | -2.35
COCCNC(=O)[C@H]1CN(Cc2scnc2C)C[C@H]2OCC[C@@H]12 | -3.43
CCN(CC)CC1CN(CCc2ccccc2)Cc2nccn2C1 (stereo unspecified) | -4.11
Cc1nnc(N2C[C@@H](OCCCn3cccn3)[C@H]3OCCC[C@H]32)s1 | -9.45
Cc1ncnc2c1CCN(Cc1ccccn1)CC2 | -4.71
Cc1nnc(N2CCCC3(CN(Cc4ccncc4)CCO3)C2)o1 (stereo unspecified) | -2.14
CN1CC(=O)N(c2cnn(C)c2)CC12CCN(Cc1ccccc1)C2 (stereo unspecified) | 0.248
Cc1nc(CN2CCOCC3(CCN(c4ncccn4)C3)C2)cs1 (stereo unspecified) | -3.76
O=C(Nc1cccnc1)[C@H]1COC[C@H]2CN(C3CCCC3)C[C@H]21 | 3.49
Cn1cc(CN2CCc3onc(COc4cccnc4)c3C2)cn1 | 14.8
COc1ncccc1CN1C[C@@H]2COC[C@]2(COCC2CC2)C1 | -11.6
O=C(C[C@@H]1COC[C@H]2CN(Cc3ccncc3)C[C@@H]12)N1CCOCC1 | -13.2
c1ccc(OCC2CC3(CCN(c4ncccn4)CC3)CO2)nc1 (stereo unspecified) | -19.6
CO[C@H]1CCN(Cc2cccc(C)n2)[C@@H]2CN(Cc3cccnc3)C[C@H]12 | 1.87
